Legend:
[1] = tested on: Candida albicans; experiment: Candida albicans-induced colitis model; assay type: in vivo, Balb/C female mice; settings: after 9 days; 150 mg/kg, curative
Method: The inventors have selected a group of Balb/C female mice under estradiol (2.5 mg/kg; 1 injection every 3 days, for 12 days) to develop a Candida albicans-induced colitis model.
The prevention treatment started during estradiol administration, whereas the curative treatments started 2 days after Candida inoculation. The mice were sacrificed 14 days after the inoculation.

[2] = tested on: 2,4,6-trinitrobenzene sulfonic acid (TNBS)-induced colitis; experiment: TNBS-induced colitis in rats; assay type: in vivo, rats (Sprague Dauwley)
Method: The inventors have developed a model based on 2,4,6-trinitrobenzene sulfonic acid (TNBS)-induced colitis in rats (Sprague Dauwley); 80 mg/kg. Colorectal distension is measured 14 days prior to the TNBS induction, as well as 21, 35 and 49 days after the TNBS induction.
The bacteria B. breve and La have been formulated in sticks for ingestion; the stability having been validated.

[3] = tested on: Caco-2 cells; experiment: Toxicity test CCK-8 on Caco-2 cells; settings: inflammatory conditions, LPS 1 mg/ml
Excerpt: (§1) A cellular model with HT-29 and Caco-2 cells has been established.

[4] = tested on: HT-29; experiment: Toxicity test CCK-8 on HT-29 cells under LPS; settings: inflammatory conditions, LPS 10 ng/ml
Excerpt: as §1

[5] = tested on: ileo-cecal lesions; experiment: IBD model: ileo-cecal resection in transgenic HLA-B27 rats; assay type: in vivo; settings: 6 weeks after resection; treatment from week 8
Method: Transgenic HLA-B27 rats have been selected by the inventors as a model for ileo-cecal lesions in Humans (for instance common in Crohn's disease).
Twelve weeks-old rats (40, in five pools) are treated for the resection of distal ileum with proximal colon and the inflammation level was evaluated 6 weeks thereafter.

OC(Cn1cncn1)(Cn1cncn1)c1ccc(F)cc1F [Fluconazole]
mice remaining infected [1]: no mice remaining infected

Oc1cc(O)cc(O)c1 [Spasfon, Phloroglucinol]
macroscopic evaluation (Wallace scoring) ([2]; TNBS condition: 2.25): 1.56
histological analysis of the inflammation (Ameho) ([2]; TNBS+vehicle: 2.00): 1.56
pain threshold ([2]; also with Vitamin D): did not increase the pain threshold

C=C1CC[C@H](O)C/C1=C/C=C1\CCC[C@]2(C)[C@@H]([C@H](C)CCCC(C)C)CC[C@@H]12 [Vitamin D, cholecalciferol (Vitamin D3)]
toxicity (CCK-8) [3]: no toxicity
toxicity (CCK-8) [4]: no toxicity

Nc1ccc(O)c(C(=O)O)c1 [pentasa]
post-operative relapses [5]: markedly reduced

— US20260224609A1, “TREATMENT OF GUT INFLAMMATORY DISEASES” (priority 2023, published 2026)
